For 41 molecules, IC50 results are on record in patent US8648068B2, “Heterocycloalkyl-containing thienopyrimidines for pharmaceutical compositions” (Boehringer Ingelheim International GmbH, priority 2010, dated 2014).

Structures can show the parent of a compound that is named as a salt.

The experiment deals with T1, human Mnk2a (Homo sapiens, UniProt Q9HBH9).
T1 construct: made in house; host or cells: E. coli BL21 (vector pGEX-4T1)
Nature of the experiment: Mnk2a in vitro kinase assay (indirect fluorescence polarization). It is filed as biochemical. To be noted: GST-Mnk2a pre-activated with ERK2, 20 μM ATP, 30 μM substrate peptide; read-out: MNK2 IC50. As to the method:
Inhibitory potency of compounds against Mnk1, Mnk2a and other kinases was assessed with assays based on a format known to those skilled in the art as the indirect (competitive) fluorescence polarization. The assay detection system comprises a small fluorophore-labeled phospho-peptide (termed ligand) bound to a phospho-specific antibody. The product generated by the kinase reaction competes with the ligand for antibody binding. Based on the larger molecular volume of the bound ligand, which results in a lower rotation rate in solution, its emitted light has a higher degree of polarization than the one from the free ligand.
As a source of enzyme, human Mnk1 and human Mnk2a were expressed as GST fusion proteins in E. coli, purified to >80% homogeneity by glutathione affinity chromatography and activated in vitro with pre-activated ERK2. In brief, the open reading frames of human Mnk1 and Mnk2a were amplified from cDNA using the forward/reverse primer pairs
(utilized restriction sites underlined), respectively, and cloned into the BamHI and SalI sites of the vector pGEX-4T1 (Amersham, Sweden, cat. no. 27-4580-01). These constructs allow prokaryotic expression of Mnk1 or Mnk2a as fusion protein with a N-terminal glutathione S-transferase (GST) tag, referred to as GST-Mnk1 or GST-Mnk2a. The following expression and purification procedure was identical for GST-Mnk1 and GST-Mnk2a, referring in general to GST-Mnk, when not distinguishing between the two isoforms. Expression of GST-Mnk was in E. coli BL21 (Merck Biosciences, Germany, cat. no. 69449). Cells were grown in LB-Bouillon (Merck, Germany, cat. no. 1.10285) supplemented with 100 μg/ml ampicillin (Sigma, Germany, cat. no. A9518) at 37° C. When the culture had reached a density corresponding to an A600 of 0.8, an equal volume of ice cold LB/ampicillin was added, the culture transferred to 25° C. and induced for 4 h with 1 mM isopropyl thiogalactoside (IPTG, Roth, Germany, cat. no. 2316.4). Cells harvested by centrifugation were resuspended in 10 ml lysis buffer (50 mM tris(hydroxymethyl)aminomethane hydrochloride (Tris/HCl, Sigma, Germany, cat. no. T5941) pH 7.5, 300 mM sodium chloride (NaCl, Sigma, Germany, cat. no. S7653), 5% (w/v) glycerol (Sigma, Germany, cat. no. G5516), 3 mM DTT dithiotreitol (DTT, Sigma, Germany, cat. no. D9779)) per gram wet weight cell pellet. Lysates were prepared by disruption of cells with a sonifier and subsequent clearing by centrifugation at 38000 g for 45 min at 4° C.
The lysate was applied to a GSTPrep FF 16/10 column (Amersham, Sweden, cat. no. 17-5234-01) equilibrated with lysis buffer. Removal of unbound material was with 3 column volumes (CV) lysis buffer. Elution was with 2 CV of elution buffer (50 mM Tris/HCl pH 7.5, 300 mM NaCl, 5% (w/v) glycerol, 20 mM glutathione (Sigma, Germany, cat. no. G4251)). Peak fractions were pooled and the protein transferred into storage buffer (50 mM Tris/HCl pH 7.5, 200 mM NaCl, 0.1 mM ethylene glycol-bis(2-aminoethylether)-N,N,N′,N′-tetraacetic acid (EGTA, Aldrich, Germany, cat. no. 23, 453-2), 1 mM DTT, 10% (w/v) glycerol, 0.5 M sucrose (Sigma, Germany, cat. no. SO389) by gel filtration on a PD10 desalting column (Amersham, Sweden, cat. no. 17-0851-01). Aliquots were shock frozen in liquid nitrogen and stored at −80° C.
Activation of Mnk1 and Mnk2a was at a concentration of 2.5 μM of either purified GST-Mnk1 or GST-Mnk2a by incubation with 150 nM pre-activated NHis-ERK2 (see ERK2 assay for preparation) and 50 μM adenosine triphosphate (ATP, Sigma, cat. no. A2699) in a buffer comprising 20 mM N-(2-hydroxyethyl)piperazine-N′-(2-ethanesulfonic acid) (HEPES, Fluka, Germany, cat. no 54459)/potassium hydroxide (KOH, Roth, Germany, cat. no 6751.1) pH 7.4, 10 mM magnesium chloride (MgCl2, Sigma, Germany, cat. no. M2670), 0.25 mM DTT, 0.05% (w/v) polyoxyethylene 20 stearylether (Brij 78, Sigma, Germany, cat. no. P4019) (HMDB buffer) for 45 min at 30° C. […]
On the technique in general: Polarisation of emitted light reports the rotation of a fluorescent probe.

The IC50 is the concentration that inhibits the measured activity by half.

T1 sequence (Q9HBH9 whole entry): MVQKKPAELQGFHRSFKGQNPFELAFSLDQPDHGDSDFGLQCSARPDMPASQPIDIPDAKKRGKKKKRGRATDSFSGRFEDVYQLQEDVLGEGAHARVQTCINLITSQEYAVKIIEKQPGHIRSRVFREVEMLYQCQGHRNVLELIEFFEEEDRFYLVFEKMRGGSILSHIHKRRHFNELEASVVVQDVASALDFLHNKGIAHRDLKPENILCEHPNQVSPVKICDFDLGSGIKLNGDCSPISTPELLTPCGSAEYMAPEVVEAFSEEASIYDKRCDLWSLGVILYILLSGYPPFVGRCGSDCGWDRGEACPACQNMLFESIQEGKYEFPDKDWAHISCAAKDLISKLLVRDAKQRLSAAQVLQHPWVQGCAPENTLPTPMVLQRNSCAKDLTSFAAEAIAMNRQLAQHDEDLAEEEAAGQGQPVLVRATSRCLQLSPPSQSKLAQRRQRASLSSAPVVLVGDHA

Regarding `Cc1c(C(=O)NC2CCCNCC2)sc2ncnc(Nc3ccc(F)cc3OC3CCOC3)c12` (stereo in doubt) [Compound 277, 4-{4-Fluoro-2-[(R)-(tetrahydro-furan-3-yl)oxy]-phenylamino}-5-methyl-thieno[2,3-d]pyrimidine-6-carboxylic acid azepan-4-ylamide trifluoroacetate], the IC50 stood at 59 nM. Consider `Cc1c(C(=O)N[C@H]2CCC[C@@H]2O)sc2ncnc(Nc3cccnc3OC3CCOCC3)c12` [Compound 278, 5-Methyl-4-[2-(tetrahydro-pyran-4-yloxy)-pyridin-3-ylamino]-thieno[2,3-d]pyrimidine-6-carboxylic acid ((1S,2S)-2-hydroxy-cyclopentyl)-amide], for which the IC50 stood at 79 nM. The value for `Cc1c(C(=O)NCCC[S+](C)[O-])sc2ncnc(Nc3cccnc3OC3CCOCC3)c12` (centres unmarked) [Compound 282, 5-Methyl-4-[2-(tetrahydro-pyran-4-yloxy)-pyridin-3-ylamino]-thieno[2,3-d]pyrimidine-6-carboxylic acid (3-methanesulfinyl-propyl)-amide] was 53 nM; that for `COCCN1CCC[C@H](Oc2cc(F)ccc2Nc2ncnc3sc(C(N)=O)c(C)c23)C1` [Example 1, 4-{4-Fluoro-2-[(S)-1-(2-methoxy-ethyl)-piperidin-3-yloxy]-phenylamino}-5-methyl-thieno[2,3-d]pyrimidine-6-carboxylic acid amide] was 490 nM.

On to `Cc1c(C(N)=O)sc2ncnc(Nc3ccc(F)cc3O[C@H]3CCCN(CC(=O)N(C)C)C3)c12` [Example 2], for which the IC50 was determined as 470 nM. `Cc1c(C(N)=O)sc2ncnc(Nc3ccc(F)cc3O[C@H]3CCCN(CCC#N)C3)c12` [Example 3]: the IC50 came to 120 nM. Turning to `Cc1c(C(N)=O)sc2ncnc(Nc3ccc(F)cc3O[C@H]3CCCN(Cc4ncon4)C3)c12` [Example 4], the IC50 was 110 nM. For `Cc1c(C(N)=O)sc2ncnc(Nc3ccc(F)cc3O[C@H]3CCCN(CC(F)(F)F)C3)c12` [Example 5] the value was 110 nM.

For `Cc1c(C(N)=O)sc2ncnc(Nc3ccc(F)cc3O[C@H]3CCCN(CCO)C3)c12` [Example 6, (S)-4-(4-fluoro-2-(1-(2-hydroxyethyl)piperidin-3-yloxy)phenylamino)-5-methylthieno[2,3-d]pyrimidine-6-carboxamide], the IC50 is 120 nM. For `Cc1c(C(N)=O)sc2ncnc(Nc3ccc(F)cc3O[C@H]3CCCN(CC(C)C)C3)c12` [Example 7] the value was 4400 nM. For `Cc1c(C(N)=O)sc2ncnc(Nc3ccc(F)cc3O[C@H]3CCCN(C)C3)c12` [Example 8] the value was 80 nM; for `Cc1c(C(N)=O)sc2ncnc(Nc3ccc(F)cc3O[C@H]3CCCN(CCC(F)(F)F)C3)c12` [Example 9], 180 nM. The value for `Cc1c(C(N)=O)sc2ncnc(Nc3ccc(F)cc3O[C@H]3CCCN(S(C)(=O)=O)C3)c12` [Example 10, (S)-4-(4-fluoro-2-(1-(methylsulfonyl)piperidin-3-yloxy)phenylamino)-5-methylthieno[2,3-d]pyrimidine-6-carboxamide] was 10 nM; that for `CNC(=O)c1sc2ncnc(Nc3ccc(F)cc3O[C@H]3CCCNC3)c2c1C` [Example 11, 4-[4-Fluoro-2-((S)-piperidin-3-yloxy)-phenylamino]-5-methyl-thieno[2,3-d]pyrimidine-6-carboxylic acid methylamide] was 39 nM. For `Cc1c(C(=O)NC(C)C)sc2ncnc(Nc3ccc(F)cc3O[C@H]3CCCNC3)c12` [Example 12], the IC50 is 61 nM. For `COCCNC(=O)c1sc2ncnc(Nc3ccc(F)cc3O[C@H]3CCCNC3)c2c1C` [Example 13] the value was 59 nM; for `Cc1c(C(=O)NCc2nccn2C)sc2ncnc(Nc3ccc(F)cc3O[C@H]3CCCNC3)c12` [Example 14], 40 nM. The value for `Cc1c(C(=O)NCCO)sc2ncnc(Nc3ccc(F)cc3O[C@H]3CCCNC3)c12` [Example 15] was 31 nM; that for `Cc1c(C(=O)NCCCO)sc2ncnc(Nc3ccc(F)cc3O[C@H]3CCCNC3)c12` [Example 16] was 30 nM; that for `Cc1c(C(=O)NC2CC2)sc2ncnc(Nc3ccc(F)cc3O[C@H]3CCCNC3)c12` [Example 17] was 30 nM. The value for `Cc1c(C(=O)NCCF)sc2ncnc(Nc3ccc(F)cc3OC3CCCNC3)c12` (centres unmarked) [Example 18] was 58 nM; that for `Cc1c(C(=O)NCC2CC2)sc2ncnc(Nc3ccc(F)cc3OC3CCCNC3)c12` (centres unmarked) [Example 19] was 47 nM. For `CCC(C)CNC(=O)c1sc2ncnc(Nc3ccc(F)cc3OC3CCCNC3)c2c1C` (centres unmarked) [Example 20], the IC50 was 67 nM. Consider `Cc1c(C(=O)NCC(C)(C)C)sc2ncnc(Nc3ccc(F)cc3OC3CCCNC3)c12` (centres unmarked) [Example 21], for which the IC50 turned out to be 76 nM. Turning to `Cc1c(C(=O)NCc2ccco2)sc2ncnc(Nc3ccc(F)cc3OC3CCCNC3)c12` (centres unmarked) [Example 22], the IC50 was determined as 26 nM. For `Cc1c(C(=O)NCc2ncco2)sc2ncnc(Nc3ccc(F)cc3OC3CCCNC3)c12` (centres unmarked) [Example 23] the value was 48 nM. The value for `Cc1c(C(=O)NCC2CCOC2)sc2ncnc(Nc3ccc(F)cc3OC3CCCNC3)c12` (centres unmarked) [Example 24] was 62 nM; that for `Cc1c(C(=O)NCC2CCCO2)sc2ncnc(Nc3ccc(F)cc3OC3CCCNC3)c12` (centres unmarked) [Example 25] was 81 nM. For `CCC(CC)CNC(=O)c1sc2ncnc(Nc3ccc(F)cc3OC3CCCNC3)c2c1C` (centres unmarked) [Example 26] the value was 60 nM; for `Cc1c(C(=O)NCc2ccccc2)sc2ncnc(Nc3ccc(F)cc3OC3CCCNC3)c12` (centres unmarked) [Example 27], 48 nM; for `Cc1c(C(=O)NCCc2cn[nH]c2)sc2ncnc(Nc3ccc(F)cc3OC3CCCNC3)c12` (centres unmarked) [Example 28], 65 nM. Take `Cc1c(C(=O)NCC2CCCCC2)sc2ncnc(Nc3ccc(F)cc3OC3CCCNC3)c12` (centres unmarked) [Example 29]: the IC50 is 53 nM. `Cc1c(C(=O)NCc2cccs2)sc2ncnc(Nc3ccc(F)cc3OC3CCCNC3)c12` (centres unmarked) [Example 30]: the IC50 stood at 34 nM. The value for `Cc1c(C(=O)NCc2nccs2)sc2ncnc(Nc3ccc(F)cc3OC3CCCNC3)c12` (centres unmarked) [Example 31] was 43 nM. The value for `Cc1c(C(=O)NCC2CCOCC2)sc2ncnc(Nc3ccc(F)cc3OC3CCCNC3)c12` (centres unmarked) [Example 32] was 55 nM. Consider `Cc1cccc(CNC(=O)c2sc3ncnc(Nc4ccc(F)cc4OC4CCCNC4)c3c2C)c1` (centres unmarked) [Example 33], for which the IC50 was 56 nM. The value for `Cc1c(C(=O)NCc2ccc(O)cc2)sc2ncnc(Nc3ccc(F)cc3OC3CCCNC3)c12` (centres unmarked) [Example 34] was 35 nM. The value for `Cc1c(C(=O)NCc2cccc(F)c2)sc2ncnc(Nc3ccc(F)cc3OC3CCCNC3)c12` (centres unmarked) [Example 35] was 53 nM; that for `Cc1c(C(=O)N(C)CC2CCCCC2)sc2ncnc(Nc3ccc(F)cc3OC3CCCNC3)c12` (centres unmarked) [Example 36] was 790 nM; that for `Cc1c(C(=O)NCCc2cccs2)sc2ncnc(Nc3ccc(F)cc3OC3CCCNC3)c12` (centres unmarked) [Example 37] was 68 nM. The value for `Cc1c(C(=O)NCCOC(F)(F)F)sc2ncnc(Nc3ccc(F)cc3OC3CCCNC3)c12` (centres unmarked) [Example 38] was 100 nM.
